Measured values reported in patent publication US12473304B2, “Heterocyclic PAD4 inhibitors” (BRISTOL-MYERS SQUIBB COMPANY, priority 2020, dated 2025).

target: human PAD4 (hPAD4) (Homo sapiens (Human), UniProt Q9UM07); experiment: RFMS Human PAD4 Functional Assay 1; assay type: biochemical; conditions: RFMS assay 1; 5 nM hPAD4, 250 μM BAEE substrate, 50 μM calcium, 37° C.
Experimental: RFMS Human PAD4 Functional Assay 1:
Compounds were solubilized in 100% DMSO to achieve all) mM compound concentration. Compound stock solutions were stored at RT. A series of dilutions were prepared in DMSO and mixed 8 times with 20 μL mixing volume. Final top concentration of compound in the assay is 50 μM. Final assay conditions were as follows: • Reaction volume: 26 μl • Assay buffer: 25 mM hepes, pH 7.5, 5 mM NaCl, 1 mM DTT, 0.2 mg/ml BSA, 0.01% CHAPS, 50 μM Calcium, and 5 μM TPEN • Final concentrations: 5 nM hPAD4 enzyme, 250 μM BASE, and 0.5% DMSO • Total incubation time: 30 mins compound and enzyme preincubation at 37° C., 90 min enzyme/substrate reaction, 30 min reaction with phenyl glyoxal at 37° C. • Stop solution: 40 μl 5% TCA in ACN
0.13 μL of compound solution was added to 13 μL of 10 nM PAD4 in assay buffer. After 30 min 13 μl of 500 μM of BAEE was added in 25 mM hepes, pH 7.5, 5 mM NaCl, 1 mM DTT, 0.2 mg/ml BSA, 0.01% CHAPS, 50 μM Calcium, 5 μM TPEN was added and the reaction incubated for 90 min at 37° C. The enzymatic reaction was quenched by addition of 15 μl of 6.1N TCA, 100% Final Concentration is 20%, 35 μl of 8.5 mM phenyl glyoxal (final concentration 4 mM) is then added and the reaction is incubated for 30 min at 37° C.
After 30 minutes the plates are spun down to remove all precipitate. The enzyme reaction was quenched with an equal volume of methanol containing internal standard (modified citrulline). Samples were loaded onto the Rapid Fire RF300 system (Agilent) wherein they were first sipped for 1000 ms and then directly loaded to a C18 separations cartridge using a mixture of acetonitrile containing 0.01% formic acid for 3000 ms desalting. The flow rate of the mobile phase was 1.5 ml/min. Once the samples were eluted from the cartridge, a mobile phase of acetonitrile containing 0.01% formic acid was used to move the samples into the mass spectrometer for 4000 ms at a flow rate of 1.25 ml/min/Sciex API5500 triple quadrupole mass spectrometer (Applied Biosystems) equipped with ESI was used to analyze the peptidyl citrulline and internal standard ions.
MRM transition of product and internal standard were monitored at m/z 424.5 to 350.4 and m/z 293 to 247 respectively. The dwell time for each transition was set at 200 ms, and the ESI voltage was used at 5500 with a source temperature of 400° C. Extracted ion peaks for each transition were integrated using the Rapid Fire Integrator software. Peak area of analyte was normalized with internal standard.).

human PAD4 (hPAD4), sequence (Q9UM07 whole entry): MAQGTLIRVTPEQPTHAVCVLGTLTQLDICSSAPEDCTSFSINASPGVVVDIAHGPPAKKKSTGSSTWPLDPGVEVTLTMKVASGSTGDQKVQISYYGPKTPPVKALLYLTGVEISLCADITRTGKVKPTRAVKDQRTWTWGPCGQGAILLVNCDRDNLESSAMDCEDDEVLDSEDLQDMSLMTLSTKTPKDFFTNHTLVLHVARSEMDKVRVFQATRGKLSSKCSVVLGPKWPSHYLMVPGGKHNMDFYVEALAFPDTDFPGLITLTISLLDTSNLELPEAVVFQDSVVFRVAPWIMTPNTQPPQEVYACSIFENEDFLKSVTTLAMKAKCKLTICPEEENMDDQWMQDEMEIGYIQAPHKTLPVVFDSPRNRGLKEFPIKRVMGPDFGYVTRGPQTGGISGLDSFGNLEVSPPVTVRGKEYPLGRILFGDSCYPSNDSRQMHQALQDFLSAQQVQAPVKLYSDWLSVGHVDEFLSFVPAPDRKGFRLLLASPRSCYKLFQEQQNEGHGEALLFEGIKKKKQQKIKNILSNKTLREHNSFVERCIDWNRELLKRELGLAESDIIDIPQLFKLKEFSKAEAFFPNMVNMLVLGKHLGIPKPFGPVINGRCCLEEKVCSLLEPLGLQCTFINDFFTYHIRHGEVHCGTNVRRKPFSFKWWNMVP

IC50	SMILES
190 nM	Cc1c(-c2cc3cccc(C4CCN(C(=O)C5CC(O)C5)CC4)c3n2CC2CC2)nn2cc(C(=O)N3C[C@H](N)C[C@@H](F)C3)ccc12 (mixture of isomers) [Example 466, ((3R,5R)-3-amino-5-fluoropiperidin-1-yl)(2-(1-(cyclopropylmethyl)-7-(1-(3-hydroxycyclobutane-1-carbonyl)piperidin-4-yl)-1H-indol-2-yl)-3-methylpyrazolo[1,5-a]pyridin-6-yl)methanone]
20 nM	Cc1c(-c2cc3cccc(C4CCN(C(=O)C5CC(O)C5)CC4)c3n2CC2CC2)nn2cc(C(=O)N3CC4CCC3[C@@H]4N)ccc12 (mixture of isomers) [Example 467, (4-(2-(6-((7R)-7-amino-2-azabicyclo[2.2.1]heptane-2-carbonyl)-3-methylpyrazolo[1,5-a]pyridin-2-yl)-1-(cyclopropylmethyl)-1H-indol-7-yl)piperidin-1-yl)(3-hydroxycyclobutyl)methanone]
130 nM	Cc1c(-c2cc3cc(F)cc(C4CCN(C(=O)C5CC(O)C5)CC4)c3n2CC2CC2)nn2cc(C(=O)N3CCC[C@@H](N)C3)ccc12 (mixture of isomers) [Example 492, (R)-(3-Aminopiperidin-1-yl)(2-(1-(cyclopropylmethyl)-5-fluoro-7-(1-(3-hydroxycyclobutane-1-carbonyl)piperidin-4-yl)-1H-indol-2-yl)-3-methylpyrazolo[1,5-a]pyridin-6-yl)methanone]
20 nM	Cc1c(-c2cc3cc(F)cc(C4CCN(C(=O)C5CC(O)C5)CC4)c3n2CC2CC2)nn2cc(C(=O)N3C[C@H](N)C[C@@H](F)C3)ccc12 (mixture of isomers) [Example 496, ((3R,5R)-3-Amino-5-fluoropiperidin-1-yl)(2-(1-(cyclopropylmethyl)-5-fluoro-7-(1-(3-hydroxycyclobutane-1-carbonyl)piperidin-4-yl)-1H-indol-2-yl)-3-methylpyrazolo[1,5-a]pyridin-6-yl)methanone]
60 nM	Cc1c(-c2cc3cc(F)cc(C4CCN(C(=O)C5CC(O)(C(F)(F)F)C5)CC4)c3n2CC2CC2)nn2cc(C(=O)N3C[C@H](N)C[C@@H](F)C3)ccc12 (mixture of isomers) [Example 505, ((3R,5R)-3-Amino-5-fluoropiperidin-1-yl)(2-(1-(cyclopropylmethyl)-5-fluoro-7-(1-(3-hydroxy-3-(trifluoromethyl)cyclobutane-1-carbonyl)piperidin-4-yl)-1H-indol-2-yl)-3-methylpyrazolo[1,5-a]pyridin-6-yl)methanone]
40 nM	Cc1c(-c2cc3cc(F)cc(C4CCN(C(=O)C5CCCCO5)CC4)c3n2CC2CC2)nn2cc(C(=O)N3CCC[C@@H](N)C3)ccc12 (mixture of isomers) [Example 508, ((R)-3-Aminopiperidin-1-yl)(2-(1-(cyclopropylmethyl)-5-fluoro-7-(1-(tetrahydro-2H-pyran-2-carbonyl)piperidin-4-yl)-1H-indol-2-yl)-3-methylpyrazolo[1,5-a]pyridin-6-yl)methanone]
350 nM	Cc1c(-c2cc3cc(F)cc(C4CCN(C(=O)C5CCCCO5)CC4)c3n2CC2CC2)nn2cc(C(=O)N3C[C@H](N)C[C@@H](F)C3)ccc12 (mixture of isomers) [Example 509, ((3R,5R)-3-Amino-5-fluoropiperidin-1-yl)(2-(1-(cyclopropylmethyl)-5-fluoro-7-(1-(tetrahydro-2H-pyran-2-carbonyl)piperidin-4-yl)-1H-indol-2-yl)-3-methylpyrazolo[1,5-a]pyridin-6-yl)methanone]
60 nM	COc1cc(C(=O)N2CCC[C@@H](N)C2)cn2nc(-c3cc4cccc(C5CN(C(=O)C6CC(O)(C(F)(F)F)C6)C5)c4n3CC3CC3)c(C)c12 (mixture of isomers) [Example 515, (R)-(3-Aminopiperidin-1-yl)(2-(1-(cyclopropylmethyl)-7-(1-(3-hydroxy-3-(trifluoromethyl)cyclobutane-1-carbonyl)azetidin-3-yl)-1H-indol-2-yl)-4-methoxy-3-methylpyrazolo[1,5-a]pyridin-6-yl)methanone]
70 nM	Cc1c(-c2cc3cccc(C4CN(C(=O)C5CC(O)(C(F)(F)F)C5)C4)c3n2CC2CC2)nn2cc(C(=O)N3CCC[C@@H](N)C3)ccc12 (mixture of isomers) [Example 535, (R)-(3-Aminopiperidin-1-yl)(2-(1-(cyclopropylmethyl)-7-(1-(3-hydroxy-3-(trifluoromethyl)cyclobutane-1-carbonyl)azetidin-3-yl)-1H-indol-2-yl)-3-methylpyrazolo[1,5-a]pyridin-6-yl)methanone]
1070 nM	Cc1c(-c2cc3cccc(C4CN(C(=O)C5CCCCO5)C4)c3n2CC2CC2)nn2cc(C(=O)N3C[C@H](N)C[C@@H](F)C3)ccc12 (mixture of isomers) [Example 544, ((3R,5R)-3-Amino-5-fluoropiperidin-1-yl)(2-(1-(cyclopropylmethyl)-7-(1-(tetrahydro-2H-pyran-2-carbonyl)azetidin-3-yl)-1H-indol-2-yl)-3-methylpyrazolo[1,5-a]pyridin-6-yl)methanone]
260 nM	Cc1c(-c2cc3cccc(C4CN(C(=O)C5CCCCO5)C4)c3n2CC2CC2)nn2cc(C(=O)N3CCC[C@@H](N)C3)ccc12 (mixture of isomers) [Example 545, ((R)-3-Aminopiperidin-1-yl)(2-(1-(cyclopropylmethyl)-7-(1-(tetrahydro-2H-pyran-2-carbonyl)azetidin-3-yl)-1H-indol-2-yl)-3-methylpyrazolo[1,5-a]pyridin-6-yl)methanone]
10 nM	COc1cc(C(=O)N2CC3CCC2[C@@H]3N)cn2nc(-c3cc4ccnc(OCC5CNC(=O)C5)c4n3CC3CC3)c(C)c12 (mixture of isomers) [Example 608, 4-(((2-(6-((7R)-7-Amino-2-azabicyclo[2.2.1]heptane-2-carbonyl)-4-methoxy-3-methylpyrazolo[1,5-a]pyridin-2-yl)-1-(cyclopropylmethyl)-1H-pyrrolo[2,3-c]pyridin-7-yl)oxy)methyl)pyrrolidin-2-one (mixture of diastereomers)]
208 nM	Cc1c(-c2cc3ccc(C(C)(O)C(F)(F)F)nc3n2CC2CC2)nn2cc(C(=O)N3C[C@H](N)C[C@@H](F)C3)ccc12 (single isomer, unassigned) [Example 106]
240 nM	Cc1c(-c2cc3ccc(C(C)(O)C(F)(F)F)nc3n2CC2CC2)nn2cc(C(=O)N3C[C@H](N)C[C@@H](F)C3)ccc12 (single isomer, unassigned) [Example 107]
80 nM	COc1cc(C(=O)N2CCC[C@@H](N)C2)cn2nc(-c3cc4cccc(C5CCN(C(=O)C6CCCCO6)CC5)c4n3CC3CC3)c(C)c12 (single isomer, unassigned) [Example 386]
230 nM	COc1cc(C(=O)N2CCC[C@@H](N)C2)cn2nc(-c3cc4cccc(C5CCN(C(=O)C6CCCCO6)CC5)c4n3CC3CC3)c(C)c12 (single isomer, unassigned) [Example 387]
70 nM	COc1cc(C(=O)N2C[C@H](N)C[C@@H](F)C2)cn2nc(-c3cc4cccc(C5CCN(C(=O)C6CCCCO6)CC5)c4n3CC3CC3)c(C)c12 (single isomer, unassigned) [Example 388]
30 nM	COc1cc(C(=O)N2C[C@H](N)C[C@@H](F)C2)cn2nc(-c3cc4cccc(C5CCN(C(=O)C6CCCCO6)CC5)c4n3CC3CC3)c(C)c12 (single isomer, unassigned) [Example 389]
5 nM	COc1cc(C(=O)N2C[C@H](N)C[C@@H](F)C2)cn2nc(-c3cc4cccc(C5CCN(C(=O)C6CC(O)C6)CC5)c4n3CC3CC3)c(C)c12 (single isomer, unassigned) [Example 390]
3 nM	COc1cc(C(=O)N2CCC[C@@H](N)C2)cn2nc(-c3cc4cccc(C5CCN(C(=O)C6CC(O)C6)CC5)c4n3CC3CC3)c(C)c12 (single isomer, unassigned) [Example 392]
250 nM	COc1cc(C(=O)N2C[C@H](N)C[C@@H](F)C2)cn2nc(-c3cc4cccc(C5CCN(C(=O)C6CC(O)C6)CC5)c4n3CC3CC3)c(C)c12 (single isomer, unassigned) [Example 393]
10 nM	COc1cc(C(=O)N2C[C@H](N)C[C@@H](F)C2)cn2nc(-c3cc4cccc(C5CCN(C(=O)C6CCCO6)CC5)c4n3CC3CC3)c(C)c12 (single isomer, unassigned) [Example 394]
